Source: PubChem BioAssay AID1963850 (Molecular Pharmacology Branch, DTP, NCI, 2024)
“And” between values parts separate entries of the source, which are not always exact repeats. Equal values may be shown once.

Test system: 192522-019-R-J2-PDC complex tumor spheroid viability
Assay: Anticancer human tumor 192522-019-R-J2-PDC patient-derived colon adenocarcinoma cell line growth inhibition [POLQ]
Conditions: for viability, T/C: stronger effect = lower value
Experimental: Multicellular complex tumor spheroid response to Polymerase (POL) inhibitors (novobiocin, ART-558, RP6685) in combination with a variety of drugs and investigational agents in selected tumor cell lines
The POL inhibitors (novobiocin, ART-558, and RP6685) were evaluated both individually and in combination with standard of care and investigational anticancer small molecules within a complex spheroid model of solid tumors. . Complex spheroids include a stromal component modeled by human endothelial cells (HUVEC) and fibroblasts modeled by human mesenchymal stem cells (MSCs). The concentration ranges selected for each drug and investigational agent were based upon clinically achievable concentrations if the clinical Cmax of the agent was known.
Compounds. The drugs and investigational agents: novobiocin (NSC847541), ART-558 (NSC835418), RP-6685 (NSC848927), peposertib (NSC802822), ceralasertib (NSC780249), elimusertib (NSC800525), camonsertib (NSC841442), AZD-1390 (NSC803789), olaparib (NSC753686), talazoparib (NSC767125), rucaparib (NSC756644), sotorasib (NSC818433), MRTX-1133 (NSC836407), SN-38 (NSC673596), topotecan (NSC609699), epotoside (NSC141540), doxorubicin (NSC123127), gemcitabine (NSC613327), 5-fluorouracil (NSC19893), paclitaxel (NSC125973), vemurafenib (NSC761431), MSA-2 (NSC828583), SN-011 (NSC837082), adavosertib (NSC754352), prexasertib (NSC758257), carboplatin (NSC241240) and oxaliplatin (NSC266046), were obtained from the National Cancer Institute (NCI) Developmental Therapeutics Program Chemical Repository (21). The FDA-approved anticancer drug set is available from the Developmental Therapeutics Program at https://dtp.cancer.gov/organization/dscb/obtaining/. […] The stock solutions were prepared in dimethyl sulfoxide (DMSO, Sigma-Aldrich, St. Louis, MO, cat. D2650), except for the platinum compounds which were prepared in saline (Quality Biological, Gaithersburg, MD, cat. 114-055-101), at 800-fold the tested concentration and stored at -70 degrees C prior to their use. All drugs and investigational agents were tested over a range starting from a high concentration at or near the clinical Cmax and decreasing in half-log increments. If the clinical Cmax for an agent had not been determined, the highest concentration tested was 10 microM, except for SN-38, which was tested at a high concentration of 1 microM.
Cell Culture. All cells were maintained in an incubator at 37 degrees C and 5% CO2 with 95% humidity. The PDC lines were cultured according to standard operating procedures established by the NCI PDMR (https://pdmr.cancer.gov). Table 3 of the manuscript, lists the cell lines along with the number of the three cell types plated to form the mct-spheroids and media for tumor cell growth. After thawing, all PDC lines, except 997537-175-T-J1-PDC and 415267-285-R-J2-PDC, were cultured in Matrigel-coated flasks prepared with a working solution of 1X Ham's F-12 nutrient mix, without supplementation (Thermo Fisher Scientific, cat. 11765054), 100 U/mL penicillin-streptomycin (Thermo Fisher Scientific, cat. 15140122), and 2.5% Matrigel (Corning Inc., Corning, NY, cat. 354248) for the first three passages. The two PDC lines 997537-175-T-J1-PDC and 415267-285-R-J2-PDC were cultured on uncoated flasks. The 857933-349-R-J2-PDC line was cultured in 6C/Colon 1B media containing advanced DMEM/F-12 (Thermo Fisher Scientific, cat. 12634028), 10 mM HEPES (Thermo Fisher Scientific, cat. 15630080), 1X GlutaMAX supplement (Thermo Fisher Scientific, cat. 35050061), 0.1 mg/mL primocin (InvivoGen, San Diego, CA, cat. ant-pm-2), 10% defined fetal bovine serum, heat inactivated (HyClone Laboratories Inc., Logan, UT, cat. SH30070.03HI), 50% L-WRN conditioned media (ATCC, cat. CRL-3276), 1.25 mM N-Acetyl-L-cysteine (Sigma-Aldrich, cat. A9165), 10 mM nicotinamide (Sigma-Aldrich, cat. N0636), 1X B-27 supplement (Thermo Fisher Scientific, cat. 17504044), 1X N-2 supplement (Thermo Fisher Scientific, cat. […]

[1] = curve of first compound, second compound 0.0316 µM
[2] = curve of first compound, second compound 0.1 µM
[3] = curve of first compound, second compound 0.316 µM
[4] = curve of first compound, second compound 1 µM
[5] = curve of first compound, second compound 3.16 µM
[6] = curve of first compound, second compound 10 µM
[7] = second compound 0.0316 µM, first compound 0.0316 µM
[8] = second compound 0.0316 µM, first compound 0.1 µM
[9] = second compound 0.0316 µM, first compound 0.316 µM
[10] = second compound 0.0316 µM, first compound 1 µM
[11] = second compound 0.0316 µM, first compound 3.16 µM
[12] = second compound 0.0316 µM, first compound 10 µM
[13] = second compound 0.1 µM, first compound 0.0316 µM
[14] = second compound 0.1 µM, first compound 0.1 µM
[15] = second compound 0.1 µM, first compound 0.316 µM
[16] = second compound 0.1 µM, first compound 1 µM
[17] = second compound 0.1 µM, first compound 3.16 µM
[18] = second compound 0.1 µM, first compound 10 µM
[19] = second compound 0.316 µM, first compound 0.0316 µM
[20] = second compound 0.316 µM, first compound 0.1 µM
[21] = second compound 0.316 µM, first compound 0.316 µM
[22] = second compound 0.316 µM, first compound 1 µM
[23] = second compound 0.316 µM, first compound 3.16 µM
[24] = second compound 0.316 µM, first compound 10 µM
[25] = second compound 1 µM, first compound 0.0316 µM
[26] = second compound 1 µM, first compound 0.1 µM
[27] = second compound 1 µM, first compound 0.316 µM
[28] = second compound 1 µM, first compound 1 µM
[29] = second compound 1 µM, first compound 3.16 µM
[30] = second compound 1 µM, first compound 10 µM
[31] = second compound 3.16 µM, first compound 0.0316 µM
[32] = second compound 3.16 µM, first compound 0.1 µM
[33] = second compound 3.16 µM, first compound 0.316 µM
[34] = second compound 3.16 µM, first compound 1 µM
[35] = second compound 3.16 µM, first compound 3.16 µM
[36] = second compound 3.16 µM, first compound 10 µM
[37] = second compound 10 µM, first compound 0.0316 µM
[38] = second compound 10 µM, first compound 0.1 µM
[39] = second compound 10 µM, first compound 0.316 µM
[40] = second compound 10 µM, first compound 1 µM
[41] = second compound 10 µM, first compound 3.16 µM
[42] = second compound 10 µM, first compound 10 µM
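Note: spheroids exposed to drugs for seven days before reading.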
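Throughout, for viability, T/C: 100% = DMSO vehicle control viability in luminescence.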

## CC1COCCN1c1cc(-c2ccnn2C)c2ccnc(-c3ccn[nH]3)c2n1 (stereo unspecified) + Cc1cccc(N(C)C(=O)C2C(O)CCN2c2nc(C)cc(C(F)(F)F)c2C#N)c1
[1]
  IC50: 359 nM
[2]
  IC50: 287 nM
[3]
  IC50: 397 nM
[4]
  IC50: 428 nM
[5]
  IC50: 402 nM
[6]
  IC50: 373 nM
[7]
  viability, T/C: 101%
[8]
  viability, T/C: 73%
[9]
  viability, T/C: 55.6%
[10]
  viability, T/C: 32.6%
[11]
  viability, T/C: 43.4%
[12]
  viability, T/C: 47.4%
[13]
  viability, T/C: 108%
[14]
  viability, T/C: 76.8%
[15]
  viability, T/C: 49.4%
[16]
  viability, T/C: 32.8%
[17]
  viability, T/C: 42.1%
[18]
  viability, T/C: 52.4%
[19]
  viability, T/C: 100%
[20]
  viability, T/C: 77.2%
[21]
  viability, T/C: 56.5%
[22]
  viability, T/C: 32.5%
[23]
  viability, T/C: 37.9%
[24]
  viability, T/C: 48.8%
[25]
  viability, T/C: 91.4%
[26]
  viability, T/C: 89.2%
[27]
  viability, T/C: 53.1%
[28]
  viability, T/C: 33%
[29]
  viability, T/C: 37.7%
[30]
  viability, T/C: 54.1%
[31]
  viability, T/C: 95%
[32]
  viability, T/C: 84%
[33]
  viability, T/C: 51.7%
[34]
  viability, T/C: 36.3%
[35]
  viability, T/C: 44%
[36]
  viability, T/C: 57.9%
[37]
  viability, T/C: 94.9%
[38]
  viability, T/C: 83.1%
[39]
  viability, T/C: 51.9%
[40]
  viability, T/C: 33.8%
[41]
  viability, T/C: 44.2%
[42]
  viability, T/C: 56.8%

## CC1COCCN1c1cc(C2(S(C)(=N)=O)CC2)nc(-c2ccnc3[nH]ccc23)n1 (stereo unspecified)
Compound 0.0316 µM
  viability, T/C: 102% (2×) and 110%
Compound 0.1 µM
  viability, T/C: 90% and 103% and 101%
Compound 0.316 µM
  viability, T/C: 97% and 97.9% and 103%
Compound 1 µM
  viability, T/C: 90.6% and 100% and 91.6%
Compound 3.16 µM
  viability, T/C: 59.7% and 64.2% and 56.4%
Compound 10 µM
  viability, T/C: 31.6% and 37.1% and 31.1%
Curve of compound
  IC50: 4700 nM and 5780 nM and 4210 nM

## CCc1cc2c(N3CCc4c(cc(Cn5ccnc5)cc4-c4cn(C)nc4C(F)(F)F)C3=O)cc(C)nc2c(OC)n1 + COC1C(OC(N)=O)C(O)C(Oc2ccc3c(O)c(NC(=O)c4ccc(O)c(CC=C(C)C)c4)c(=O)oc3c2C)OC1(C)C
[1]
  IC50: > 10000 nM
[2]
  IC50: > 10000 nM
[3]
  IC50: > 10000 nM
[4]
  IC50: > 10000 nM
[5]
  IC50: > 10000 nM
[6]
  IC50: > 10000 nM
[7]
  viability, T/C: 95.6%
[8]
  viability, T/C: 90.6%
[9]
  viability, T/C: 90.5%
[10]
  viability, T/C: 82.8%
[11]
  viability, T/C: 79.2%
[12]
  viability, T/C: 60.7%
[13]
  viability, T/C: 94.2%
[14]
  viability, T/C: 94.3%
[15]
  viability, T/C: 81.5%
[16]
  viability, T/C: 82.4%
[17]
  viability, T/C: 72.3%
[18]
  viability, T/C: 67.4%
[19]
  viability, T/C: 101%
[20]
  viability, T/C: 96.7%
[21]
  viability, T/C: 96.1%
[22]
  viability, T/C: 81.6%
[23]
  viability, T/C: 82.6%
[24]
  viability, T/C: 69.7%
[25]
  viability, T/C: 99%
[26]
  viability, T/C: 96.8%
[27]
  viability, T/C: 85.1%
[28]
  viability, T/C: 84.3%
[29]
  viability, T/C: 68.5%
[30]
  viability, T/C: 72.4%
[31]
  viability, T/C: 95.6%
[32]
  viability, T/C: 98.8%
[33]
  viability, T/C: 87.1%
[34]
  viability, T/C: 83.9%
[35]
  viability, T/C: 74.6%
[36]
  viability, T/C: 66.2%
[37]
  viability, T/C: 102%
[38]
  viability, T/C: 91.4%
[39]
  viability, T/C: 87.5%
[40]
  viability, T/C: 80.6%
[41]
  viability, T/C: 88.9%
[42]
  viability, T/C: 73.4%
